Reference: patent US4871774A, “Medical treatment” (The Boots Company PLC, priority 1987, dated 1989)
Where “and” joins values, the source holds several entries; their conditions need not be identical. Equal values may be shown once.

Test system: uptake of radiolabelled dopamine into freshly prepared synaptosomes from rat striatum
Test: Inhibition of dopamine uptake in vitro by plasma from humans treated with drug (14C-dopamine, rat striatal synaptosomes)
Type: biochemical
Details: plasma 3 h after 50 mg oral; for % Inhibition of dopamine uptake: hydrochloride monohydrate
Experimental: (5) Inhibition of dopamine uptake in vitro by plasma from humans treated with drug
The plasma was separated by centrifugation at 2900×g for 20 minutes at room temperature in a Heraeus Christ minicentrifuge and was stored at -20° C. prior to analysis. The samples were thawed in a water bath at 37° C. for 10-15 minutes prior to commencement of the in vitro dopamine uptake assay which was performed as described in (3) above except ^14 C-dopamine was used. The assay was performed twice on plasma from each volunteer.

Structure (SMILES): CC(C)CC(N(C)C)C1(c2ccc(Cl)cc2)CCC1.Cl.O (stereo not drawn) [N,N-dimethyl-1-[1-(4-chlorophenyl)cyclobutyl]-3-methylbutylamine hydrochloride monohydrate]
- % Inhibition of dopamine uptake, Mean (Volunteer 1, mean of two assays): 11.6%
- % Inhibition of dopamine uptake, Mean (Volunteer 2, mean of two assays): 8.6%
- % Inhibition of dopamine uptake, Mean (Volunteer 3, mean of two assays): 15.7%
- % Inhibition of dopamine uptake (Volunteer 3, single assays (performed twice)): 13.4% and 17.9%
- % Inhibition of dopamine uptake, Mean (Volunteer 4, mean of two assays): 17.9%
- % Inhibition of dopamine uptake, Mean (Volunteer 5, mean of two assays): 15.7%
- % Inhibition of dopamine uptake (Volunteer 5, single assays (performed twice)): 13.0% and 18.4%
- % Inhibition of dopamine uptake, Mean (Volunteer 6, mean of two assays): 16.1%
- mean (±SEM) % inhibition of 14C-dopamine uptake by plasma from the six drug-treated volunteers (mean of six volunteers): 14.2±1.4%
